From patent publication US4965280A, “Antifungal carbinols” (E. I. Du Pont de Nemours and Company, priority 1989, dated 1990)
In brackets after ≈: the same amount, converted by molar mass. Like-named read-outs stand apart in the source and are kept apart here.

How the values were obtained:
[1] = tested on: Puccinia recondita; assay: Example G wheat leaf rust; format: in vivo; settings: read-out: disease control rating, Ex. G
[2] = tested on: Erysiphe graminis f. sp. tritici; assay: Example D wheat powdery mildew; format: in vivo; settings: Blumeria graminis, 144 h, read-out: disease control rating, Ex. D
Protocol: (§1) The test compounds were dissolved in acetone in an amount equal to 6% of the final volume and then suspended at a concentration of 100 or 20 ppm in purified water containing 250 ppm of the surfactant TREM 014 (polyhydric alcohol esters). This suspension was sprayed to the point of run-off on wheat seedlings.

[3] = tested on: Cercosporidium personatum; assay: Example B Peanut Late Leafspot; format: in vivo; settings: Nothopassalora personata, read-out: disease control rating, Ex. B
Protocol: as §1, with “peanut” for “wheat”

[4] = tested on: Venturia inaequalis; assay: Example A apple scab; format: in vivo; settings: read-out: disease control rating, Ex. A
Protocol: as §1, with “apple seedings.” for “wheat seedlings.”

[5] = tested on: Aspergillus fumigatus ATCC 28214; assay: In vitro antifungal MIC, microtiter broth dilution; settings: Aspergillus fumigatus, ATCC28214, 24 h, read-out: MIC values, A. fumigatus, 30°, 24 hours
[6] = tested on: Plasmorpara viticola; assay: Example I grape downy mildew; format: in vivo; settings: read-out: disease control rating, Ex. I
Protocol: as §1, with “grape” for “wheat”

[7] = tested on: Botrytis cinerea; assay: Example C bean grey mold; format: in vivo; settings: Botrytis cinerea, 24 h, read-out: disease control rating, Ex. C
Protocol: as §1, with “broad bean” for “wheat”

[8] = tested on: Candida albicans ATCC 11651; assay: In vitro antifungal MIC, microtiter broth dilution; settings: Candida albicans, ATCC11651, 24 h, read-out: MIC values, C. albicans, 30°, 24 hours
[9] = tested on: Phytophthora infestans; assay: whole plant or invertebrate; format: in vivo; settings: Phytophthora infestans, in Solanum lycopersicum, read-out: disease control rating, Ex. H, 100 PPM
[10] = tested on: Rhizoctonia solani; assay: Example F rice sheath blight; format: in vivo; settings: Rhizoctonia solani, 144 h, read-out: disease control rating, Ex. F
Protocol: as §1, with “rice” for “wheat”

[11] = tested on: Pyricularia oryzae; assay: whole plant or invertebrate; format: in vivo; settings: Pyricularia oryzae, 120 h; for pest or weed control at 20 ppm: read-out: disease control rating, Ex. E, 20 PPM; for pest or weed control at 100 ppm: read-out: disease control rating, Ex. E, 100 PPM
[12] = tested on: Candida albicans ATCC 11651; assay: In vivo systemic Candida infection in mice, primary assay; design: species or system Candida albicans; CF-1 female mice; settings: Candida albicans, 150 mg/kg per day, read-out: % Survival
Text: The […] activity of test compounds is based on the percent (%) survival of infected animals receiving test or standard agent compared to that in an infected untreated group (Table 6). The in vivo assays are chronic systemic infections lethal to mice within 7 days post infection, [J. Barnes, et al. Lab Investigation, 49 460-467 (1963), and T. Rogers and E. Balish, Infection and Immunity, 14 33-38 (1976)].
Candida albicans ATCC 11651, from a frozen stock culture (10^9 organisms/ml) maintained at -70°, is diluted in saline to 1×10^7 organisms/ml and 0.2 ml inoculated intravenously (caudal vein) into 20.0 gm CF-1 female mice (Charles River).
Test compounds are routinely solubilized in 0.25% (w/v) methylcellulose (Methocel®) but for those compounds difficult to solubilize 10% (w/v) Emulophor® (EL620 GAF Corp.) is used. The standard antifungal agents, amphotericin B (Fungizone®) in water and ketoconazole (Nizoral®) in Methocel®, are administered at 1.0 mg/kg/day and 150 mg/kg/day, respectively.
In a primary assay, mice (10 per group) are infected with C. albicans, and receive test compounds at 50 or 150 mg/kg/day via the subcutaneous route. Animals are dosed with the test compound at 1 and 6 hour post-infection and then once daily for the next three days. Survival of mice in each group is recorded for 21 days.
Compounds which protect ≥70% of the infected animals for 14 days at a dose 150 mg/kg/day or less are viewed as active.

| SMILES | pest or weed control at 20 ppm [1] [%] | pest or weed control at 20 ppm [2] [%] | pest or weed control at 20 ppm [3] [%] | pest or weed control at 20 ppm [4] [%] | MIC [5] [µg/mL] | pest or weed control at 100 ppm [6] [%] | pest or weed control at 20 ppm [7] [%] | pest or weed control at 100 ppm [7] [%] | MIC [8] [µg/mL] | pest or weed control at 100 ppm [9] [%] | pest or weed control at 20 ppm [10] [%] | pest or weed control at 100 ppm [10] [%] | pest or weed control at 20 ppm [11] [%] | pest or weed control at 100 ppm [11] [%] | responders at 150 mg/kg ([12]; ATCC11651, 168 h, day 7) [%] | responders at 150 mg/kg ([12]; ATCC11651, 336 h, day 14) [%] | responders at 150 mg/kg ([12]; ATCC11651, 504 h, day 21) [%] | pest or weed control at 100 ppm [2] [%] | further results |
| --- | --- | --- | --- | --- | --- | --- | --- | --- | --- | --- | --- | --- | --- | --- | --- | --- | --- | --- | --- |
| OC(Cn1cncn1)(C(=Cc1ccccc1)c1ccccc1)c1ccc(F)cc1 (stereo not shown) [Example 291] | 73 | 83 | 26 | 32 | 100 (≈ 259 µM) | 78 | 6 | 81 | 0.2 (≈ 0.519 µM) | 24 | 0 | 0 | 1 | 1 | – | – | – | – | – |
| C=C(c1ccc(F)cc1)C(Cn1cncn1)(OC(C)=O)c1ccc(F)cc1 (stereo not shown) [Example 361] | 100 | 33 | 26 | 43 | 25 (≈ 67.7 µM) | 9 | 29 | 46 | 0.8 (≈ 2.17 µM) | 27 | 0 | 0 | 1 | 1 | 100 | 100 | 90 | – | – |
| C=C(c1ccc(F)cc1)C(O)(Cn1cncn1)c1cccc(C(F)(F)F)c1 (stereo not shown) [Example 661] | 100 | 62 | 79 | 81 | 100 (≈ 265 µM) | 85 | 61 | 56 | 1.6 (≈ 4.24 µM) | 5 | 10 | 70 | 0 | 0 | 50 | 20 | 0 | – | – |
| C=C(c1cccc(Cl)c1)C(O)(Cn1cncn1)c1ccc(F)cc1F (stereo not shown) [Example 42] | 100 | 98 | 100 | 29 | 6.3 (≈ 17.4 µM) | 23 | 38 | 100 | 0.03 (≈ 0.0829 µM) | 0 | 0 | 41 | 15 | 31 | 80 | 80 | 50 | 100 | – |
| C=C(c1ccccc1Cl)C(O)(Cn1cncn1)c1ccc(Cl)c(Cl)c1 (stereo not shown) [Example 627] | 99 | 81 | 70 | 31 | 25 (≈ 63.3 µM) | 61 | 19 | 38 | 0.03 (≈ 0.076 µM) | 0 | 0 | 14 | 0 | 0 | 0 | 0 | 0 | – | – |
| C=C(c1ccc(Cl)cc1)C(O)(Cn1cncn1)c1ccc(Cl)c(Cl)c1 (stereo not shown) [Example 675] | 16 | 44 | 0 | 40 | 25 (≈ 63.3 µM) | 69 | 42 | 30 | 0.1 (≈ 0.253 µM) | 0 | 0 | 62 | 0 | 0 | 100 | 60 | 0 | – | – |
| C=C(c1ccc(F)cc1)C(O)(Cn1cncn1)c1ccc(OC)cc1 (stereo not shown) [Example 663] | – | – | – | – | – | 39 | – | 95 | – | 0 | – | 36 | – | 57 | – | – | – | 99 | pest or weed control at 100 ppm [1]: 100%; pest or weed control at 100 ppm [3]: 100%; pest or weed control at 100 ppm [4]: 42% |
| C=C(c1ccc([S+](C)[O-])cc1)C(O)(Cn1cncn1)c1ccc(F)cc1 (stereo not shown) [Example 170] | 100 | 95 | 69 | 19 | 100 (≈ 269 µM) | 0 | 32 | 20 | 1.6 (≈ 4.31 µM) | 0 | 0 | 0 | 0 | 10 | – | – | – | – | – |
| C=C(c1ccc(S(C)(=O)=O)cc1)C(O)(Cn1cncn1)c1ccc(F)cc1 (stereo not shown) [Example 177] | 100 | 46 | 26 | 82 | > 100 | 0 | 50 | 26 | 3.2 (≈ 8.26 µM) | 0 | 0 | 0 | 0 | 10 | – | – | – | – | – |
| C=C(CN(C)C)C(O)(Cn1cncn1)c1ccc(F)cc1 (stereo not shown) [Example 454] | – | – | – | – | > 100 | 0 | – | 0 | 100 (≈ 344 µM) | 0 | – | 0 | – | 0 | – | – | – | 22 | pest or weed control at 100 ppm [1]: 0%; pest or weed control at 100 ppm [3]: 0%; pest or weed control at 100 ppm [4]: 0% |
